Measurements taken from patent US20060014790A1, “Methods of treatment of amyloidosis using spirocyclohexane aspartyl-protease inhibitors” (priority 2004, published 2006).
Where “and” joins values, the source holds several entries; their conditions need not be identical. Equal values may be shown once.

target: catE / beta-secretase (BACE); experiment: CatE/BACE selectivity (ratio of IC50 values); format: biochemical; details: each value is an average of four experimental runs; multiple values = more than one experiment
Procedure: (§1) Selectivity was calculated as a ratio of inhibition (IC50) values in which the inhibition of beta-secretase was compared to the inhibition of other aspartyl proteases.
Selectivity is reported as the ratio of IC50(catE):IC50(BACE).
(§2) In the following examples, each value is an average of four experimental runs and multiple values for one compound indicate that more than one experiment was conducted.

SMILES | IC50 catE/IC50 BACE
COC1CCC(NCC(O)C(Cc2cc(F)cc(F)c2)NC(C)=O)(c2cccc(C(C)(C)C)c2)CC1 (single isomer, unassigned) [196B-3 Diastereomer A, N-[3-[1-(3-tert-Butyl-phenyl)-4-methoxy-cyclohexylamino]-1-(3,5-difluoro-benzyl)-2-hydroxy-propyl]-acetamide] | 1.8 and 1.5
COC1CCC(NCC(O)C(Cc2cc(F)cc(F)c2)NC(C)=O)(c2cccc(C(C)(C)C)c2)CC1 (single isomer, unassigned) [196B-4 Diastereomer B, N-[3-[1-(3-tert-Butyl-phenyl)-4-methoxy-cyclohexylamino]-1-(3,5-difluoro-benzyl)-2-hydroxy-propyl]-acetamide] | 1.5
CONC1CCC(NCC(O)C(Cc2cc(F)cc(F)c2)NC(C)=O)(c2cccc(C(C)(C)C)c2)CC1 (single isomer, unassigned) [196B-11 Diastereomer A, N-(4-(1-(3-tert-butylphenyl)-4-(methoxyamino)cyclohexylamino)-1-(3,5-difluorophenyl)-3-hydroxybutan-2-yl)acetamide] | 7.4
CONC1CCC(NCC(O)C(Cc2cc(F)cc(F)c2)NC(C)=O)(c2cccc(C(C)(C)C)c2)CC1 (single isomer, unassigned) [196B-12 Diastereomer B, N-(4-(1-(3-tert-butylphenyl)-4-(methoxyamino)cyclohexylamino)-1-(3,5-difluorophenyl)-3-hydroxybutan-2-yl)acetamide] | 12.5
CSC1CCC(NCC(O)C(Cc2cc(F)cc(F)c2)NC(C)=O)(c2cccc(C(C)(C)C)c2)CC1 (single isomer, unassigned) [196B-14 Diastereomer A, N-[3-[1-(3-tert-Butyl-phenyl)-4-methylsulfanyl-cyclohexylamino]-1-(3,5-difluoro-benzyl)-2-hydroxy-propyl]-acetamide] | 5.5 and 3.4 and 2.9
CSC1CCC(NCC(O)C(Cc2cc(F)cc(F)c2)NC(C)=O)(c2cccc(C(C)(C)C)c2)CC1 (single isomer, unassigned) [196B-15 Diastereomer B, N-[3-[1-(3-tert-Butyl-phenyl)-4-methylsulfanyl-cyclohexylamino]-1-(3,5-difluoro-benzyl)-2-hydroxy-propyl]-acetamide] | 2.4 and > 2.5 and 2.3
CNC1CCC(NCC(O)C(Cc2cc(F)cc(F)c2)NC(C)=O)(c2cccc(C(C)(C)C)c2)CC1 (single isomer, unassigned) [196B-16 Diastereomer A, N-(4-(1-(3-tert-butylphenyl)-4-(methylamino)cyclohexylamino)-1-(3,5-difluorophenyl)-3-hydroxybutan-2-yl)acetamide] | >4.7
CNC1CCC(NCC(O)C(Cc2cc(F)cc(F)c2)NC(C)=O)(c2cccc(C(C)(C)C)c2)CC1 (single isomer, unassigned) [196B-17 Diastereomer B, N-(4-(1-(3-tert-butylphenyl)-4-(methylamino)cyclohexylamino)-1-(3,5-difluorophenyl)-3-hydroxybutan-2-yl)acetamide] | 1.8
CC(=O)NC(Cc1cc(F)cc(F)c1)C(O)CNC1(c2cccc(C(C)(C)C)c2)CCC(N)CC1 (single isomer, unassigned) [196B-18 Diastereomer A, N-(4-(1-(3-tert-butylphenyl)-4-aminocyclohexylamino)-1-(3,5-difluorophenyl)-3-hydroxybutan-2-yl)acetamide] | >8.4
CC(=O)NC(Cc1cc(F)cc(F)c1)C(O)CNC1(c2cccc(C(C)(C)C)c2)CCC(N)CC1 (single isomer, unassigned) [196B-19 Diastereomer B, N-(4-(1-(3-tert-butylphenyl)-4-aminocyclohexylamino)-1-(3,5-difluorophenyl)-3-hydroxybutan-2-yl)acetamide] | >8.4
CC(=O)NC(Cc1cc(F)cc(F)c1)C(O)CNC1(c2cccc(C(C)(C)C)c2)CCC(C(F)(F)F)CC1 (single isomer, unassigned) [196B-21 Diastereomer A, N-(4-(1-(3-tert-butylphenyl)-4-(trifluoromethyl)cyclohexylamino)-1-(3,5-difluorophenyl)-3-hydroxybutan-2-yl)acetamide] | 6.4
CC(=O)NC(Cc1cc(F)cc(F)c1)C(O)CNC1(c2cccc(C(C)(C)C)c2)CCC(C(F)(F)F)CC1 (single isomer, unassigned) [196B-22 Diastereomer B, N-(4-(1-(3-tert-butylphenyl)-4-(trifluoromethyl)cyclohexylamino)-1-(3,5-difluorophenyl)-3-hydroxybutan-2-yl)acetamide] | 2.5

target: catD / beta-secretase (BACE); experiment: CatD/BACE selectivity (ratio of IC50 values); format: biochemical; details: each value is an average of four experimental runs; multiple values = more than one experiment
Procedure: as §1, §2

SMILES | IC50 catD/IC50 BACE
CC(=O)NC(Cc1cc(F)cc(F)c1)C(O)CNC1(c2cccc(C(C)C)c2)CCN(C=O)CC1 (stereo not shown) [Example 196A-13, N-{1-(3,5-Difluoro-benzyl)-3-[1-formyl-4-(3-isopropyl-phenyl)-piperidin-4-ylamino]-2-hydroxy-propyl}-acetamide] | 33.5
CCS(=O)(=O)N1CCC(NCC(O)C(Cc2cc(F)cc(F)c2)NC(C)=O)(c2cccc(C(C)(C)C)c2)CC1 (stereo not shown) [Example 196A-15, N-[3-[4-(3-tert-Butyl-phenyl)-1-ethanesulfonyl-piperidin-4-ylamino]-1-(3,5-difluoro-benzyl)-2-hydroxy-propyl]-acetamide] | 13.1
CC(=O)NC(Cc1cc(F)cc(F)c1)C(O)CNC1(c2cccc(-c3ccsc3)c2)CCC(=O)CC1 (stereo not shown) [Example 196A-19, N-(1-(3,5-difluorophenyl)-3-hydroxy-4-(4-oxo-1-(3-(thiophen-3-yl)phenyl)cyclohexylamino)butan-2-yl)acetamide] | 4.4
CC(=O)NC(Cc1cc(F)cc(F)c1)C(O)CNC1(c2cccc(C(C)(C)C)c2)CCCN(C)C1 (stereo not shown) [Example 196A-40, N-(4-(3-(3-tert-butylphenyl)-1-methylpiperidin-3-ylamino)-1-(3,5-difluorophenyl)-3-hydroxybutan-2-yl)acetamide] | >2,0
CC(=O)NC(Cc1cc(F)cc(F)c1)C(O)CNC1(c2cccc(Br)c2)CCC2(CC1)OCCO2 (stereo not shown) [Example 196A-47, N-[3-[8-(3-Bromo-phenyl)-1,4-dioxa-spiro[4.5]dec-8-ylamino]-1-(3,5-difluoro-benzyl)-2-hydroxy-propyl]-acetamide] | 1.7
CC(=O)NC(Cc1cc(F)cc(F)c1)C(O)CNC1(c2cccc(C(C)(C)C)c2)CCC(C#N)CC1 (stereo not shown) [Example 196A-48, N-[3-[1-(3-tert-Butyl-phenyl)-4-cyano-cyclohexylamino]-1-(3,5-difluoro-benzyl)-2-hydroxy-propyl]-acetamide] | 1.7
CC(=O)NC(Cc1cc(F)cc(F)c1)C(O)CNC1(c2cccc(-c3ccsc3)c2)CCC(=O)CC1 (stereo not shown) [Example 196A-49, N-{1-(3,5-Difluoro-benzyl)-2-hydroxy-3-[4-oxo-1-(3-thiophen-3-yl-phenyl)-cyclohexylamino]-propyl}-acetamide] | 4.4
